Source: PMC8958504 (Journal of Medicinal Chemistry, 2022)
Several values for one entry are separate records, joined by “and”; a condition that tells them apart may be missing. Identical values can stand only once.

Assays:
hMAO-A = target: T1, hMAO-A (Homo sapiens, UniProt P21397); assay: biochemical; conditions: for IC50: read-out: hMAO-A (IC50), recombinant hMAO-A, p-tyramine substrate
T1 sequence (P21397 1-527): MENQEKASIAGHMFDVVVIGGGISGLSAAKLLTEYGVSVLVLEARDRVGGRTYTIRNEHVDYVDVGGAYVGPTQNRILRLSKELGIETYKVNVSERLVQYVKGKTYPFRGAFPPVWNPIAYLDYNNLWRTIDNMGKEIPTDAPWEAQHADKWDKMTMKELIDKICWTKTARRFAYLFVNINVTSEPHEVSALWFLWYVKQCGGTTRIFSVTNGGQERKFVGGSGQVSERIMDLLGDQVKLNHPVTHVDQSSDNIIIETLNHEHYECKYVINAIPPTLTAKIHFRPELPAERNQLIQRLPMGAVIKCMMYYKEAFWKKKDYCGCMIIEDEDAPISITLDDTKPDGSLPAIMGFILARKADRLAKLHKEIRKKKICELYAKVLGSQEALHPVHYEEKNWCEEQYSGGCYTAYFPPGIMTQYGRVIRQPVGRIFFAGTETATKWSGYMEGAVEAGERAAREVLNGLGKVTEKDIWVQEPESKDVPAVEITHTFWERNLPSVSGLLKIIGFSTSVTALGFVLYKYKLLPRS
Protocol: (§1) The hMAO-A/B inhibition of all compounds was determined using the Amplex Red MAO assay kit.
(§2) Assays were performed following the general procedure previously described.[98] […] The specific fluorescence emission was calculated after subtracting the background activity, which was determined from wells containing all components except the hMAO isoforms, which were replaced with PBS.

hMAO-B = target: T2, hMAO-B (Homo sapiens, UniProt P27338); assay: biochemical; conditions: for IC50: read-out: hMAO-B (IC50), recombinant hMAO-B, p-tyramine substrate; for inhibition at 50 µM: read-out: hMAO-B percentage of inhibition (in brackets)
T2 sequence (P27338 1-520): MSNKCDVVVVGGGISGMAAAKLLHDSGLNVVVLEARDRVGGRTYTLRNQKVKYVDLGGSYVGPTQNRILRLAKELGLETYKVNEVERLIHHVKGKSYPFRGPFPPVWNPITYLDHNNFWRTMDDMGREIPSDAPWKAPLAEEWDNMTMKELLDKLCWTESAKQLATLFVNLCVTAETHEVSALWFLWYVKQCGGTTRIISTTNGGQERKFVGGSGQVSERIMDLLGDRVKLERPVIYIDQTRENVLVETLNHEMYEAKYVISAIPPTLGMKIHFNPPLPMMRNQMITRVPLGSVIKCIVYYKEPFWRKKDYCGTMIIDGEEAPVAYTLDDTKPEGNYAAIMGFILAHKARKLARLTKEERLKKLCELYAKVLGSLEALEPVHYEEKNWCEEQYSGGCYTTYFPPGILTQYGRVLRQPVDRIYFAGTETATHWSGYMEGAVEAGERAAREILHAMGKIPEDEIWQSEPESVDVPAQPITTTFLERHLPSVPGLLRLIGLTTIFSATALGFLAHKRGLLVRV
Protocol: as §1, §2

[1] = Oxygen radical absorbance capacity (ORAC-FL) assay; conditions: trolox = 1.0
Protocol: 2,2′-Azobis-(amidinopropane) dihydrochloride (AAPH), trolox, and fluorescein (FL) were purchased from Sigma-Aldrich. The reaction was carried out in a 75 mM phosphate buffer (pH 7.4), and the final reaction mixture was 200 μL. […] Antioxidant curves (fluorescence vs time) were first normalized to the curve of the blank corresponding to the same assay, and the area under the curve (AUC) of fluorescence decay was calculated. The net AUC corresponding to a sample was calculated by subtracting the AUC corresponding to the blank. Regression equations between the net AUC and antioxidant concentration were calculated for all the samples.

in vitro = in vitro ADME; conditions: for Papp at 240 min, 100 μg mL^–1: PAMPA, pH 7.4, class from PAMPA-BBB Pe, read-out: CNS-permeability prediction; for PAMPA-BBB (Pe, 10^–6 cm s^–1): porcine brain lipid, PBS/EtOH (70:30), 240 min, 25 °C
[2] = tested on: rat primary cortical neurons; assay: Neuroprotection against OA-induced toxicity in rat primary cortical neuronal cultures (MTT); conditions: for neuroprotection against OA-induced toxicity: compound 1 μM, OA 10 nM
[3] = tested on: NRF2-ARE signaling pathway; assay: cells; format: cell-based; conditions: for EC (2-fold induction): Arec32, 24 h, read-out: NRF2 (CD, μM), concentration required to double luciferase activity, AREc32 cells, 24 h; for NRF2 (CD, μM): concentration required to double luciferase activity, AREc32 cells, 24 h
Protocol: AREc32 cells were plated in 96-well white plates (2 × 10^4 cells/well). […]. The AREc32 cells constitutively express the plasmid pGL-8xARE that implements eight copies of the EpRE sequences, followed by the luciferase reporter gene. Therefore, NRF2 induction is related to the activation of EpRE sequences, expressing luciferase at the same extent as EpRE sequences are activated. The Luciferase Assay System (Promega E1500) was used according to the provider’s protocol, and luminescence was quantified in an Orion II microplate luminometer (Berthold, Germany). Fold induction of luciferase activity was normalized to basal conditions. Data are expressed as CD values, expressing the concentration required to double the luciferase activity. CD values were calculated from dose–response curves generated from the fold induction of control conditions versus inducer concentration and fitted by nonlinear regression and data interpolated to twofold induction concentration.[68]

QR2 = target: T3, QR2 (Mesocricetus auratus, UniProt A0ABM2YAB8); assay: biochemical; conditions: for inhibition at 10 µM: read-out: QR2 percentage of inhibition (in brackets)
T3 sequence (A0ABM2YAB8 1-231): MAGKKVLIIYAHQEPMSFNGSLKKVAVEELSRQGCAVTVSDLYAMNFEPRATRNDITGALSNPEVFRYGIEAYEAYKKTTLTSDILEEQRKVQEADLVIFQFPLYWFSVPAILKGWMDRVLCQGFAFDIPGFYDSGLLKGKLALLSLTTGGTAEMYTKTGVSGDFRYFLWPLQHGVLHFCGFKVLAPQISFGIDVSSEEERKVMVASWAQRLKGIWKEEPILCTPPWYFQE
Protocol: The QR2 experiments were performed in membrane homogenates of hamster brains (https://www.eurofins.fr, catalog ref. 0088). […] First, radioligand displacement was measured at a fixed compound concentration (10 μM) in each receptor.

adult mice NSCs = assay: Neurogenic studies in SGZ-derived neurospheres; format: cell-based, mouse; conditions: 10 μM
Protocol: Adult mice NSCs were isolated from SGZ of the dentate gyrus of the hippocampus and grown as free-floating neurospheres (NS).[72],[78] The neurogenic potential of each compound was determined using fluorescence confocal microscopy by quantifying the expression of two well-known neuronal markers: human β-III-tubulin (TuJ-1 clone) and microtubule-associated protein 2 (MAP-2). TuJ-1 is expressed in immature neurons, whereas the expression of MAP-2 indicates a consolidated mature neuronal stage.[79] Given that neurogenesis involves not only the proliferation of NSC but also the migration of newly generated cells, the greatest migration distance promoted by each compound was also measured (Figure 8).
Adult male C57BL/6 mice (3 months old) were used in order to determine neurogenesis activity. […] DAPI staining was used as a nuclear marker. Fluorescent representative images were acquired with a Nikon fluorescence microscope 90i coupled to a digital camera Qi. The microscope configuration was adjusted to produce the optimum signal-to-noise ratio. […] Quantification was undertaken using the image analySIS software (Soft Imaging System Corp., Münster, Germany) and normalized to total nuclei (DAPI-stained). The intensity of immunostaining of neurites from TuJ1-labeled cells and the number of MAP-2-positive cells were estimated from nine neurospheres per condition over three independent experiments. The outgrowth of the neurosphere cells was examined under a phase-contrast microscope and the farthest distance of cell migration was calculated from the edge of the sphere. At least 10 plated neurospheres per treatment were analyzed.

Experimental pKa = format: physicochemical
Protocol: Introduction of the propargyl group in derivatives 2 was achieved by alkylation of the NH group of the oxadiazolone ring with propargyl bromide in basic media (K2CO3) and acetone. […] However, alkylation of the 3-hydroxylated derivative 3l was carried out overnight at room temperature (rt) in order to avoid possible secondary reactions through the phenolic group (experimental pKa for NH-oxadiazolone, 7.04 ± 0.02; for phenol 8.72 ± 0.02, Supporting Information 1, Table S1 and Figure S11).

O=c1[nH]nc(/C=C/c2ccc(O)cc2)o1 [3m, 5-[(E)-2-(4-Hydroxyphenyl)ethenyl]-1,3,4-oxadiazol-2(3H)-one]
IC50 (hMAO-A): 41.5 ± 3.4 µM
IC50 (hMAO-B): 35.7 ± 3 µM
ORAC (trolox equiv) [1]: 3.2 ± 0.1 trolox equiv
Papp at 240 min, 100 μg mL^–1 (in vitro): < 2 ×10⁻⁶ cm/s
PAMPA-BBB (Pe, 10^–6 cm s^–1) (in vitro): ≤ 0.7 10^–6 cm s^–1
neuroprotection against OA-induced toxicity [2]: not able to significantly reduce neuronal death

COc1cccc(/C=C/c2n[nH]c(=O)o2)c1 [2d, 5-[(E)-2-(3-Methoxyphenyl)ethenyl]-1,3,4-oxadiazol-2(3H)-one]
EC (2-fold induction) [3]: > 60 µM
IC50 (QR2): ~10 µM
inhibition at 10 µM (QR2): 76%
IC50 (hMAO-A): > 50 µM
inhibition at 50 µM (hMAO-A; read-out: hMAO-A percentage of inhibition (in brackets)): 24%
IC50 (hMAO-B): > 50 µM
inhibition at 50 µM (hMAO-B): 33%
ORAC (trolox equiv) [1]: <0.1 trolox equiv
Papp at 240 min, 100 μg mL^–1 (in vitro): > 4 ×10⁻⁶ cm/s
PAMPA-BBB (Pe, 10^–6 cm s^–1) (in vitro): 4.6 ± 0.2 10^–6 cm s^–1
TuJ-1 and MAP-2 marked cells (adult mice NSCs): clearly increased
cell migration distance (adult mice NSCs): extended

C#CCn1nc(/C=C/c2cccc(OC)c2)oc1=O [4d, 5-[(E)-2-(3-Methoxyphenyl)ethenyl]-3-(prop-2-yn-1-yl)-1,3,4-oxadiazol-2(3H)-one]
NRF2 (CD, μM) [3]: 7.44 ± 0.34 µM
IC50 (QR2): 0.4 ± 0.03 µM
IC50 (hMAO-A): > 50 µM
IC50 (hMAO-B): 0.64 ± 0.06 µM
ORAC (trolox equiv) [1]: 0.3 ± 0.06 trolox equiv
Papp at 240 min, 100 μg mL^–1 (in vitro): > 4 ×10⁻⁶ cm/s
PAMPA-BBB (Pe, 10^–6 cm s^–1) (in vitro): 7.5 ± 0.3 10^–6 cm s^–1
TuJ-1 and MAP-2 marked cells (adult mice NSCs): clearly increased
cell migration distance (adult mice NSCs): extended
viability at 1 µM ([2]; Rattus norvegicus, Primary cortical neuron, read-out: cell viability): 86%
neuroprotection against OA-induced toxicity [2]: slightly higher neuroprotection profile than resveratrol

COc1ccc(/C=C/c2n[nH]c(=O)o2)cc1 [2e, 5-[(E)-2-(4-Methoxyphenyl)ethenyl]-1,3,4-oxadiazol-2(3H)-one]
EC (2-fold induction) [3]: > 60 µM
IC50 (QR2): ~10 µM
inhibition at 10 µM (QR2): 68%
IC50 (hMAO-A): > 50 µM
IC50 (hMAO-B): > 50 µM
inhibition at 50 µM (hMAO-B): 42%
ORAC (trolox equiv) [1]: <0.1 trolox equiv
Papp at 240 min, 100 μg mL^–1 (in vitro): > 4 ×10⁻⁶ cm/s
PAMPA-BBB (Pe, 10^–6 cm s^–1) (in vitro): 6.5 ± 0.5 10^–6 cm s^–1

O=c1[nH]nc(/C=C/c2cccc([N+](=O)[O-])c2)o1 [2c, 5-[(E)-2-(3-Nitrophenyl)ethenyl]-1,3,4-oxadiazol-2(3H)-one]
NRF2 (CD, μM) [3]: 8.42 ± 0.82 µM
IC50 (QR2): ~10 µM
inhibition at 10 µM (QR2): 56%
IC50 (hMAO-A): > 50 µM
IC50 (hMAO-B): 1.06 ± 0.22 µM
ORAC (trolox equiv) [1]: <0.1 trolox equiv
Papp at 240 min, 100 μg mL^–1 (in vitro): > 4 ×10⁻⁶ cm/s
PAMPA-BBB (Pe, 10^–6 cm s^–1) (in vitro): 4.7 ± 0.2 10^–6 cm s^–1
TuJ-1 and MAP-2 marked cells (adult mice NSCs): clearly increased
cell migration distance (adult mice NSCs): extended

O=c1[nH]nc(/C=C/c2cccc(O)c2)o1 [3l, 5-[(E)-2-(3-Hydroxyphenyl)ethenyl]-1,3,4-oxadiazol-2(3H)-one]
EC (2-fold induction) [3]: > 60 µM
pKa (Experimental pKa; experimental pKa for NH-oxadiazolone): 7.04 ± 0.02
pKa (Experimental pKa; experimental pKa for phenol): 8.72 ± 0.02
IC50 (hMAO-A): > 50 µM
IC50 (hMAO-B): > 50 µM
ORAC (trolox equiv) [1]: 3.8 ± 0.1 trolox equiv
Papp at 240 min, 100 μg mL^–1 (in vitro): < 2 ×10⁻⁶ cm/s
PAMPA-BBB (Pe, 10^–6 cm s^–1) (in vitro): ≤ 0.5 10^–6 cm s^–1
TuJ-1 and MAP-2 marked cells (adult mice NSCs): clearly increased
cell migration distance (adult mice NSCs): extended

C#CCn1nc(/C=C/c2cccc(O)c2)oc1=O [5l, 5-[(E)-2-(3-Hydroxyphenyl)ethenyl]-3-(prop-2-yn-1-yl)-1,3,4-oxadiazol-2(3H)-one]
NRF2 (CD, μM) [3]: 8.05 ± 1.41 µM
IC50 (QR2): 2.5 ± 0.12 µM
IC50 (hMAO-A): > 50 µM
IC50 (hMAO-B): 3.53 ± 0.15 µM
ORAC (trolox equiv) [1]: 2.7 ± 0.2 trolox equiv
Papp at 240 min, 100 μg mL^–1 (in vitro): > 4 ×10⁻⁶ cm/s
PAMPA-BBB (Pe, 10^–6 cm s^–1) (in vitro): 4.7 10^–6 cm s^–1 and 4.7 ± 0.2 10^–6 cm s^–1

C#CCNC(=O)/C=C/c1ccc(O)c(O)c1 [6o, (2E)-3-(3,4-Dihydroxyphenyl)-N-(prop-2-yn-1-yl)prop-2-enamide]
NRF2 (CD, μM) [3]: 19.2 ± 3.7 µM
IC50 (hMAO-A): 47 ± 0.9 µM
IC50 (hMAO-B): > 50 µM
inhibition at 50 µM (hMAO-B): 48%
ORAC (trolox equiv) [1]: 1.9 ± 0.1 trolox equiv
Papp at 240 min, 100 μg mL^–1 (in vitro): < 2 ×10⁻⁶ cm/s
PAMPA-BBB (Pe, 10^–6 cm s^–1) (in vitro): ≤ 0.4 10^–6 cm s^–1
neuroprotection against OA-induced toxicity [2]: slightly higher neuroprotection profile than resveratrol
